Results published in US6498125B2, “Pyridine ketones useful as herbicides” (Syngenta Participations AG, priority 1998, dated 2002).

Key:
Type in all cases: in vivo
[1] = tested on: Chenopodium; assay: Example B3: pre-emergence action, 250 g/ha; details: 250 g of AS/ha, sprayed immediately after sowing, 3 weeks, nine-level scale 1=complete damage, 9=no effect
Method: (§1) Monocotyledonous and dicotyledonous test plants are sown in pots in standard soil. Immediately after sowing, the test substances are sprayed on (500 l of spray liquorlha) as an aqueous suspension, prepared from a wettable powder WP10 corresponding to the desired dosage (250 g of a.i./ha).
(§2) The test plants are then grown under optimum conditions in a greenhouse. After a test period of 3 weeks, the test is evaluated with a nine -evel scale of ratings (1=complete damage, 9=no effect). Ratings of 1 to 4 (in particular 1 to 3) mean good to very good herbicidal action, 7-9 mean good tolerance.

[2] = tested on: Stellaria; assay: Example B3: pre-emergence action, 250 g/ha; details: 250 g of AS/ha, sprayed immediately after sowing, 3 weeks, nine-level scale 1=complete damage, 9=no effect
Method: as §1, §2

[3] = tested on: Abutilon; assay: Example B3: pre-emergence action, 250 g/ha; details: 250 g of AS/ha, sprayed immediately after sowing, 3 weeks, nine-level scale 1=complete damage, 9=no effect
Method: as §1, §2

[4] = tested on: Amaranthus; assay: Example B3: pre-emergence action, 250 g/ha; details: 250 g of AS/ha, sprayed immediately after sowing, 3 weeks, nine-level scale 1=complete damage, 9=no effect
Method: as §1, §2

[5] = tested on: Sida; assay: Example B3: pre-emergence action, 250 g/ha; details: 250 g of AS/ha, sprayed immediately after sowing, 3 weeks, nine-level scale 1=complete damage, 9=no effect
Method: as §1, §2

[6] = tested on: Kochia; assay: Example B3: pre-emergence action, 250 g/ha; details: 250 g of AS/ha, sprayed immediately after sowing, 3 weeks, nine-level scale 1=complete damage, 9=no effect
Method: as §1, §2

[7] = tested on: Chenopodium; assay: Example B4: post-emergence action, 250 g/ha; details: 250 g of AS/ha, sprayed in the 2-3-leaf stage, 0.2% X77, 3 weeks, nine-level scale 1=complete damage, 9=no effect
Method: (§3) Monocotyledonous and dicotyledonous test plants are sown in pots in standard soil. In the 2-3- leaf stage of the test plants, the test substances are sprayed on (500 l of spray liquor/ha) as an aqueous suspension, prepared from a wettable powder WP10 according to the desired dosage (250 g of a.i./ha). 0.2% of X77 is added as wetting agent to the spray liquor. The test plants are then grown under optimum conditions in a greenhouse.
(§4) After a test period of 3 weeks, the test is evaluated with a nine4evel scale of ratings (1=complete damage, 9=no effect). Ratings of 1 to 4 (in particular 1 to 3) mean good to very good herbicidal action, 7-9 mean good tolerance.

[8] = tested on: Stellaria; assay: Example B4: post-emergence action, 250 g/ha; details: 250 g of AS/ha, sprayed in the 2-3-leaf stage, 0.2% X77, 3 weeks, nine-level scale 1=complete damage, 9=no effect
Method: as §3, §4

[9] = tested on: Abutilon; assay: Example B4: post-emergence action, 250 g/ha; details: 250 g of AS/ha, sprayed in the 2-3-leaf stage, 0.2% X77, 3 weeks, nine-level scale 1=complete damage, 9=no effect
Method: as §3, §4

[10] = tested on: Amaranthus; assay: Example B4: post-emergence action, 250 g/ha; details: 250 g of AS/ha, sprayed in the 2-3-leaf stage, 0.2% X77, 3 weeks, nine-level scale 1=complete damage, 9=no effect
Method: as §3, §4

[11] = tested on: Sida; assay: Example B4: post-emergence action, 250 g/ha; details: 250 g of AS/ha, sprayed in the 2-3-leaf stage, 0.2% X77, 3 weeks, nine-level scale 1=complete damage, 9=no effect
Method: as §3, §4

[12] = tested on: Kochia; assay: Example B4: post-emergence action, 250 g/ha; details: 250 g of AS/ha, sprayed in the 2-3-leaf stage, 0.2% X77, 3 weeks, nine-level scale 1=complete damage, 9=no effect
Method: as §3, §4

## O=C(C1=C(O)C2CCC(C2)C1=O)c1ccc(Cl)nc1C(F)(F)F (stereo not drawn) [Compound 1.355]
[1]
  Pre-emergence action: Chenopodium (rating): 1
[2]
  Pre-emergence action: Stellaria (rating): 2
[3]
  Pre-emergence action: Abutilon (rating): 1
[4]
  Pre-emergence action: Amaranthus (rating): 1
[5]
  Pre-emergence action: Sida (rating): 2
[6]
  Pre-emergence action: Kochia (rating): 1
[7]
  Post-emergence action: Chenopodium (rating): 2
[8]
  Post-emergence action: Stellaria (rating): 3
[9]
  Post-emergence action: Abutilon (rating): 2
[10]
  Post-emergence action: Amaranthus (rating): 2
[11]
  Post-emergence action: Sida (rating): 2
[12]
  Post-emergence action: Kochia (rating): 3
